In paper PMC9851200, “Multiparameter phenotypic screening for endogenous TFEB and TFE3 translocation identifies novel chemical series modulating lysosome function” (Autophagy, 2022):
Like-named read-outs stand apart in the source and are kept apart here.

Assays:
Assay in all cases: biochemical
Type in all cases: binding
[1] = target: T1, cellular kinases of SH-SY5Y cells (Homo sapiens, UniProt Q86SG6); details: 2µM; SH-SY5Y cells; Labeling Site Lys2; DLKTQNILLDK; read-out: KiNativ in-cell binding, % Inhibition, NEK9/NEK8
T1 construct: endogenous in cells; host or cells: SH-SY5Y
T1 sequence (Q86SG6 whole entry): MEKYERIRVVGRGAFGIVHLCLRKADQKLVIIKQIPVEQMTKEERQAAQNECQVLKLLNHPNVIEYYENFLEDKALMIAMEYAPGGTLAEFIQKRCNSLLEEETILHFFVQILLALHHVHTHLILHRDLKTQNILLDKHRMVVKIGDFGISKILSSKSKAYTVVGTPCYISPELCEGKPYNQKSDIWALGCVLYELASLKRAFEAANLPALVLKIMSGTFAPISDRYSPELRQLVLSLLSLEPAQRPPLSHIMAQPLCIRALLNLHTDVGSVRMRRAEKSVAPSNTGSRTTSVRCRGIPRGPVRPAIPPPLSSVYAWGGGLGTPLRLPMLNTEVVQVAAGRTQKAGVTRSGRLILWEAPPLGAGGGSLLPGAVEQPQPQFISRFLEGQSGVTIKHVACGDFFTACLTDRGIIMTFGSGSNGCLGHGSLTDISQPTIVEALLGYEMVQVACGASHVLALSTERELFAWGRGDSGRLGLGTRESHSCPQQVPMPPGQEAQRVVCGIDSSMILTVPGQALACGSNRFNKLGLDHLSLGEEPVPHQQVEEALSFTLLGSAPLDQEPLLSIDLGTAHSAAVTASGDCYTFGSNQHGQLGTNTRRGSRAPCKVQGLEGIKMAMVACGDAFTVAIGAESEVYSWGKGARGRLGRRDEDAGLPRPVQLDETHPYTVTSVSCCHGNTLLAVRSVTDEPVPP
Text: (§1) As KINOMEscan is an in vitro assay, and as different cell types have variable kinase expression profiles we sought to determine the kinase binding profile in our SH-SY5Y TFEB-relocalization cell model. […] Bound kinases were pulled down and analyzed by mass spectrometry to determine the in situ kinase binding profile for each compound.

[2] = target: cellular kinases of SH-SY5Y cells (Homo sapiens, UniProt P07948); details: 2µM; SH-SY5Y cells; labeling site Lys1; peptide VAVKTLKPGTMSVQAFLEEANLMK
Chain of cellular kinases of SH-SY5Y cells (Homo sapiens, UniProt P07948) (P07948 whole entry): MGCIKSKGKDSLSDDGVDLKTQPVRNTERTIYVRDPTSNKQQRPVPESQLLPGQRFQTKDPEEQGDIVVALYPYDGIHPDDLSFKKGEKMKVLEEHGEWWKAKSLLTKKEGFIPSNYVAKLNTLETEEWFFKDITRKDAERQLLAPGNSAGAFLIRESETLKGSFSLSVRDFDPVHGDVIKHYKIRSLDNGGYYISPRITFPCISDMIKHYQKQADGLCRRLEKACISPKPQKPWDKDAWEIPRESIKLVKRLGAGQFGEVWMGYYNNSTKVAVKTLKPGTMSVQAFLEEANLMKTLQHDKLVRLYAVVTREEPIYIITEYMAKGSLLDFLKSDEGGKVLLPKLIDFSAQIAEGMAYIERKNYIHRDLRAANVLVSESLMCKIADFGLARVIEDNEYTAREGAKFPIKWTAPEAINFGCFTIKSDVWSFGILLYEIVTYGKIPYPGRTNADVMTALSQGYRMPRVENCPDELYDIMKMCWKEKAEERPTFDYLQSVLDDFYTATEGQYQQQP
Text: as §1

[3] = target: cellular kinases of SH-SY5Y cells (Homo sapiens, UniProt Q00535); details: 2µM, SH-SY5Y cells, read-out: KiNativ in-cell binding, % Inhibition, CDK5
Chain of cellular kinases of SH-SY5Y cells (Homo sapiens, UniProt Q00535) (Q00535 whole entry): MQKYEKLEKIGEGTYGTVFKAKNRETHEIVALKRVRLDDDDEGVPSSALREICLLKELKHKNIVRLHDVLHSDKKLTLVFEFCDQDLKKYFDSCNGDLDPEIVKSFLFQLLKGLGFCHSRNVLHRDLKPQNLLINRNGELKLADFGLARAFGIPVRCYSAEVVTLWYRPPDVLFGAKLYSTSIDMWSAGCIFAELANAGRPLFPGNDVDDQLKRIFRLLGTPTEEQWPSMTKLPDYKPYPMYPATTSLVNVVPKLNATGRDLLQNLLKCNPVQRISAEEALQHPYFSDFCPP
Text: as §1

[4] = target: cellular kinases of SH-SY5Y cells (Homo sapiens, UniProt P78368); details: 2µM; SH-SY5Y cells; Labeling Site Lys2; DVKPENFLVGRPGTK; read-out: KiNativ in-cell binding, % Inhibition, CSNK1G2/CK1g2
Chain of cellular kinases of SH-SY5Y cells (Homo sapiens, UniProt P78368) (P78368 whole entry): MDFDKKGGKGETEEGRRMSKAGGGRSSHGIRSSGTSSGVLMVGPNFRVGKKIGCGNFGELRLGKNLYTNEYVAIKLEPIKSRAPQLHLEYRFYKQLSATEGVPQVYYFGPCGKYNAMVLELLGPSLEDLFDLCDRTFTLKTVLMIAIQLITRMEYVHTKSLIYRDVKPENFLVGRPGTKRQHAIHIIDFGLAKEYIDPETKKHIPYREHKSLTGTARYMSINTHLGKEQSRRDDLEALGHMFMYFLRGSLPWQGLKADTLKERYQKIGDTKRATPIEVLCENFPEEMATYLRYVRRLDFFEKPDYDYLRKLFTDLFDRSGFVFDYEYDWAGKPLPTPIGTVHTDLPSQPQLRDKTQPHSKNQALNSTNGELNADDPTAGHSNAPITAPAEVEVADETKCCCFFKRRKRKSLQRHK
Text: as §1

[5] = target: T2, cellular kinases of SH-SY5Y cells (Homo sapiens, UniProt Q8TD19); details: 2µM, SH-SY5Y cells, read-out: KiNativ in-cell binding, % Inhibition, NEK9
T2 construct: endogenous in cells; host or cells: SH-SY5Y
T2 sequence (Q8TD19 1-979): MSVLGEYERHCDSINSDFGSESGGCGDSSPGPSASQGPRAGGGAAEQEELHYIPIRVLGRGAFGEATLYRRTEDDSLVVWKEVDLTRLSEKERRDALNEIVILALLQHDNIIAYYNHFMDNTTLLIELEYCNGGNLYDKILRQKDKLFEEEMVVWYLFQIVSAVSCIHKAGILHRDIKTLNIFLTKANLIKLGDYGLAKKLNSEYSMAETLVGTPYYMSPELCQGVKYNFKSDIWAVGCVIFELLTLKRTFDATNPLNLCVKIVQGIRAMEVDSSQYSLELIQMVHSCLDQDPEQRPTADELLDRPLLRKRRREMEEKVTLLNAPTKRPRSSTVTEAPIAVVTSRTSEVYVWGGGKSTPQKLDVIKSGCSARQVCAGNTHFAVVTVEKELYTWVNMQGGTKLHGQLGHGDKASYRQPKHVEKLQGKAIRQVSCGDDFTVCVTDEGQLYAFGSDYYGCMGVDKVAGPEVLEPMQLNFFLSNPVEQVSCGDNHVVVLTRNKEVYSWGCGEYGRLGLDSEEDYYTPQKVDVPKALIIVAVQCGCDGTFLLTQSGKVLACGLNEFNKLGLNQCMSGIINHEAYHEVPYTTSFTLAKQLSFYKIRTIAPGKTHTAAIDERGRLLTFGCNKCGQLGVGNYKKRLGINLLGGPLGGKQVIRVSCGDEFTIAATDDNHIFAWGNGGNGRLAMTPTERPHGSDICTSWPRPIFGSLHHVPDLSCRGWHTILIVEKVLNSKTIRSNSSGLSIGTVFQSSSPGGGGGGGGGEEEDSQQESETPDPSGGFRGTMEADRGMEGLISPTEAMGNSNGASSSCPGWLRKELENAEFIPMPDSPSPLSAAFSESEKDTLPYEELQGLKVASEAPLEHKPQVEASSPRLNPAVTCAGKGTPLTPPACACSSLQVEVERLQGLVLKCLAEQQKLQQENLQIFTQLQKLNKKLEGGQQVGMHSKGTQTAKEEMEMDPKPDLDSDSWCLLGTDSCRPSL
Text: as §1

[6] = target: cellular kinases of SH-SY5Y cells (Homo sapiens, UniProt Q13555); details: 2µM; SH-SY5Y cells; Labeling Site Lys1; TSTQEYAAKIINTK; read-out: KiNativ in-cell binding, % Inhibition, CaMK2g
Chain of cellular kinases of SH-SY5Y cells (Homo sapiens, UniProt Q13555) (Q13555 whole entry): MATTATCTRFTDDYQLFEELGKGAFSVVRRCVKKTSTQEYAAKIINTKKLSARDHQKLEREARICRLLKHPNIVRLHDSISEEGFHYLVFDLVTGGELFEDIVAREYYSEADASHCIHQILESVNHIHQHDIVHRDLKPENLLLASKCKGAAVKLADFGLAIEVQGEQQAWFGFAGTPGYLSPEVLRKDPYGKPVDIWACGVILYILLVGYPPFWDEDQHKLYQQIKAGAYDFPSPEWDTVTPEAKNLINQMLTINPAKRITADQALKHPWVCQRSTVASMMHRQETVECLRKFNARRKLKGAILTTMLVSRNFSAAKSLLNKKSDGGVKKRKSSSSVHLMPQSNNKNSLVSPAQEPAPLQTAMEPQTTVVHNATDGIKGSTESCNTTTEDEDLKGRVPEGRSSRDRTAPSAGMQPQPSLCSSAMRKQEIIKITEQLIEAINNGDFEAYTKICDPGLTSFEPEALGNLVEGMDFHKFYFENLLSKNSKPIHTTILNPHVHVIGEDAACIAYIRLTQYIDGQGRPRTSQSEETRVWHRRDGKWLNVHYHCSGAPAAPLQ
Text: as §1

[7] = target: cellular kinases of SH-SY5Y cells (Homo sapiens, UniProt O75716); details: 2µM; SH-SY5Y cells; Labeling Site Lys2; DLKPTNILLGDEGQPVLMDLGSMNQACIHVEGSR; read-out: KiNativ in-cell binding, % Inhibition, STK16
Chain of cellular kinases of SH-SY5Y cells (Homo sapiens, UniProt O75716) (O75716 whole entry): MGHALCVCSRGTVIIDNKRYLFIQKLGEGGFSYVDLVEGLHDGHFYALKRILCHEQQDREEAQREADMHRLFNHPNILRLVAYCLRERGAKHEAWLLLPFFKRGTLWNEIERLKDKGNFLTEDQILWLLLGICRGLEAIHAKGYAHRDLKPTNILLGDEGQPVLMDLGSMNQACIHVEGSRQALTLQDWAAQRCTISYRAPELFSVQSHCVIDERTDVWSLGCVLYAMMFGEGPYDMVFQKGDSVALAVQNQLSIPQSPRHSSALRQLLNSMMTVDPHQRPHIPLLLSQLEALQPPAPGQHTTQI
Text: as §1

[8] = target: cellular kinases of SH-SY5Y cells (Homo sapiens, UniProt Q9NWZ3); details: 2µM, SH-SY5Y cells
Chain of cellular kinases of SH-SY5Y cells (Homo sapiens, UniProt Q9NWZ3) (Q9NWZ3 whole entry): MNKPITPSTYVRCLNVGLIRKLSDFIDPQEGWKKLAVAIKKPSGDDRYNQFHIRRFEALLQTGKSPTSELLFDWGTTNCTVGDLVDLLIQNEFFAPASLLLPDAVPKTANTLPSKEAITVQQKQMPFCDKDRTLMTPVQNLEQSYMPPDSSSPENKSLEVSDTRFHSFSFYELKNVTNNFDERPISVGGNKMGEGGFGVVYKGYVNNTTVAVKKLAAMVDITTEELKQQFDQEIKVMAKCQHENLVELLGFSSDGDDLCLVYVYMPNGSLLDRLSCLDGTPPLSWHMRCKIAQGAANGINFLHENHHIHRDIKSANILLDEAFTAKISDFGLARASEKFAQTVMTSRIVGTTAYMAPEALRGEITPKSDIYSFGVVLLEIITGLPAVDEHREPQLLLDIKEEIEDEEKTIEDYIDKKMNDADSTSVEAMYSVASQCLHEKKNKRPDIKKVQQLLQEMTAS
Text: as §1

[9] = target: T3, cellular kinases of SH-SY5Y cells (Homo sapiens, UniProt P46734); details: 2µM, SH-SY5Y cells
T3 sequence (P46734 1-347): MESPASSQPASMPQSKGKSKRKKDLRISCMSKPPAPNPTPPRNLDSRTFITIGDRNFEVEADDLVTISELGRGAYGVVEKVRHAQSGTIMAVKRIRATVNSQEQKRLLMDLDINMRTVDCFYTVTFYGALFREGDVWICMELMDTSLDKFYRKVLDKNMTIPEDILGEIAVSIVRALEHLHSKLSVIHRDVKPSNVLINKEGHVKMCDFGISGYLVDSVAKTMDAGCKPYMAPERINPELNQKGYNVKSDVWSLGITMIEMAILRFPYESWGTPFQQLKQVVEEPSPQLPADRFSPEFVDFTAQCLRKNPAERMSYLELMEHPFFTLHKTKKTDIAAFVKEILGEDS
Text: as §1

[10] = target: cellular kinases of SH-SY5Y cells (Homo sapiens, UniProt P43405)
Text: as §1

[11] = target: cellular kinases of SH-SY5Y cells (Homo sapiens, UniProt Q8NEB9); details: 2µM, SH-SY5Y cells
Chain of cellular kinases of SH-SY5Y cells (Homo sapiens, UniProt Q8NEB9) (Q8NEB9 whole entry): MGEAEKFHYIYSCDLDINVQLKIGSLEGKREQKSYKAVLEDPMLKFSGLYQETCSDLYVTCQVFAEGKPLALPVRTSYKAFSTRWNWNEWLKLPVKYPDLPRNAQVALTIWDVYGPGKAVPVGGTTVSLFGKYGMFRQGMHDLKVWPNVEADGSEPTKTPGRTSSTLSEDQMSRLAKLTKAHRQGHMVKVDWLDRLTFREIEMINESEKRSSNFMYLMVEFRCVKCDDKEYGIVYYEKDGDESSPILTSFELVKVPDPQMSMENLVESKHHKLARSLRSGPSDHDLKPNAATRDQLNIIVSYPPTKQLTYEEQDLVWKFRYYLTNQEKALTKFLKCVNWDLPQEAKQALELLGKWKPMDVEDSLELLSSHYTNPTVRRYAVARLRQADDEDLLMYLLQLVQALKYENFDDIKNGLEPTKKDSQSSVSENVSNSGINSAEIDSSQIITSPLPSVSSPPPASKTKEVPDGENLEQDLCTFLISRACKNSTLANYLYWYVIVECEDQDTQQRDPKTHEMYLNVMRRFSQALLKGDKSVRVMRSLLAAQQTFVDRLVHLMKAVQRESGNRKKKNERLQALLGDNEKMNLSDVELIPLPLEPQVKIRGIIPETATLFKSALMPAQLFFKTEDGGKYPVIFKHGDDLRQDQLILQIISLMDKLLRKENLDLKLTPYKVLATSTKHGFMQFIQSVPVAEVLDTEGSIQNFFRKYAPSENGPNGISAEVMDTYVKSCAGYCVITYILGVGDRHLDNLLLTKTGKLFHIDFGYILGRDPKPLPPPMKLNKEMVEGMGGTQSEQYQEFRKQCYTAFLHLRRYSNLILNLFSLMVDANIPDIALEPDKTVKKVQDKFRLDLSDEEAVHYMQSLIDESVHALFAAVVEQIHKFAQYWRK
Text: as §1

For `Cc1cccc(-c2nc(Nc3ccc4ncsc4c3)c3ccccc3n2)n1` [NK140], the inhibition at 2 µM [1] was 15.8%, the “KiNativ in-cell binding, LYN” value [2] was -32.9 and the inhibition at 2 µM ([3]; Labeling Site Lys1, NRETHEIVALKR) was -44.9%. It also gave an inhibition at 2 µM ([3]; Labeling Site Lys2, DLKPQNLLINR) of -39%, an inhibition at 2 µM [4] of 1.8% and an inhibition at 2 µM ([5]; Labeling Site Activation Loop, LGDYGLAKK) of 0.758%. The inhibition at 2 µM ([5]; Labeling Site Lys1, RTEDDSLVVWKEVDLTR) was -12.8%, the inhibition at 2 µM ([5]; Labeling Site Lys2, DIKTLNIFLTK) was -8% and the inhibition at 2 µM [6] was 30.4%. For the same molecule, the inhibition at 2 µM [7] was -42.2%, the inhibition at 2 µM ([8]; Labeling Site Lys1, GYVNNTTVAVKK, read-out: KiNativ in-cell binding, % Inhibition, IRAK4) was -5.5% and the “KiNativ in-cell binding, IRAK4” value ([8]; labeling site Lys2, peptide DIKSANILLDEAFTAK) was -14.3. The inhibition at 2 µM ([9]; Labeling Site Activation Loop, MCDFGISGYLVDSVAKTMDAGCKPYMAPER, read-out: KiNativ in-cell binding, % Inhibition, MAP2K3) was 2.5%, the “KiNativ in-cell binding, MAP2K3” value ([9]; labeling site Lys1, peptide HAQSGTIMAVKR) was -144.3 and the “KiNativ in-cell binding, MAP2K3” value ([9]; labeling site Lys2, peptide DVKPSNVLINK) was -182.7. The “KiNativ in-cell binding, SYK” value [10] was -121.1, the inhibition at 2 µM ([10]; 2µM, SH-SY5Y cells, Labeling Site Activation Loop, AQTHGKWPVK, read-out: KiNativ in-cell binding, % Inhibition, SYK) was 0.443% and the “KiNativ in-cell binding, SYK” value ([10]; 2µM, SH-SY5Y cells, labeling site Activation Loop, peptide ISDFGLSKALR) was -15.0. The inhibition at 2 µM ([11]; Labeling Site ATP, TEDGGKYPVIFKHGDDLRQDQLILQIISLMDK, read-out: KiNativ in-cell binding, % Inhibition, PIK3C3) was -69% and the “KiNativ in-cell binding, PIK3C3” value ([11]; labeling site ATP, peptide TEDGGKYPVIFKHGDDLR) was -30.4.
